Where two headings read alike, the source gives them in different places. One block for each compound: values may come before it.
What was measured:
[1] = Uterine and vaginal weight in ovariectomized BALB/c mice treated orally for 9 days with or without estrone (Example 3); type: in vivo; conditions: for inhibition of estrone-stimulated uterine weight / inhibition of vaginal weight (estrone-stimulated): OVX mice + estrone, oral 9 days
Method: Female BALB/c mice (BALB/cAnNCrlBR) weighing 18-20 g were obtained from Charles-River, Inc. (St-Constant, Quebec, Canada) and housed 5 per cage in a temperature (23±1° C.)- and light (12 h light/day, lights on at 7:15)-controlled environment. The mice were fed rodent chow and tap water ad libitum. The animals were ovariectomized (OVX) under Isoflurane anesthesia via bilateral flank incisions and randomly assigned to groups of 10 animals. Ten mice were kept intact as controls.
In the second experiment (Table 6), TSE 424 was administered orally by gavage once daily at doses of 1, 3, 10 or 30 μg/animal for 9 days, starting 2 days after ovariectomy. In both experiments, to evaluate the antiestrogenic activity, treatment with estrone (E1, […], s.c. injection, twice daily) was started 5 days post-ovariectomy and was administered for a 6 day-period. Compounds were dissolved in ethanol (4% final concentration) and administered in 0.4% methylcellulose. Mice in the intact and OVX control groups received the vehicle alone (4% ETOH-0.4% methylcellulose) during the 9-day period. The animals were killed by exsanguination at the abdominal aorta on the 11th morning following ovariectomy. The uteri and vagina were rapidly dissected, weighed, and kept in 10% buffered formalin for further histologic examination.

[2] = system: MCF-7 human breast cancer cells; test: Proliferation (DNA content) of human breast cancer MCF-7 cells (Example 7); type: cell-based; conditions: for IC50: Homo sapiens, read-out: Inhibition of 1 nM E2 stimulation of DNA by tested compounds IC50
Source text: MCF-7 human breast cancer cells were obtained from the American Type Culture Collection #HTB 22 at passage 147 and routinely grown in phenol red-free Dulbecco's Modified Eagle's-Ham's F12 medium, the supplements mentioned above and 5% FBS. The MCF-7 human breast adenocarcinoma cell line was derived from the pleural effusion of a patient. MCF-7 cells were used between passages 148 and 165 and subcultured weekly
Thereafter, medium was replaced with fresh medium containing the indicated concentrations of compounds diluted from 1000×stock solutions in 99% redistilled ethanol in the presence or absence of E2. Control cells received only the ethanolic vehicle (0.1% EtOH, v/v). Cells were incubated for the specified time intervals with medium changes at 2- or 3-day intervals. Cell number was determined by measurement of DNA content.
All results are expressed as means±SEM.

human Ishikawa cells = test: Alkaline phosphatase activity in human endometrial adenocarcinoma Ishikawa cells (Example 6)
[3] = 26-week treatment of ovariectomized rats: lumbar spine BMD, total body fat, serum cholesterol, ALP (Example 4, experiment 2); type: in vivo, rat; conditions: OVX rats, 26 weeks
Method: Ten to twelve week-old female Sprague-Dawley rats (Crl:CD(SD)Br) (Charles River Laboratory, St-Constant, Canada) weighing approximately 220-270 g at start of treatment were used. […] The animals were housed individually and were allowed free access to tap water and a pelleted certified rodent feed (Lab Diet 5002, Ralston Purina, St-Louis, Mo.). Experiments were conducted in an animal facility approved by the Canadian Council on Animal Care (CCAC) and the Association for Assessment and Accreditation of Laboratory Animal Care (AAALAC) in accordance with the CCAC Guide for Care and Use of Experimental Animals. […] Treatments were initiated on day 2 of the study and were performed once daily during 26 weeks. In both experiments, animals not receiving a test article were treated with the appropriate vehicle alone during the same period. […] QDR 4500A, Hologic, Waltham, Mass.) and a Regional High Resolution Scan software. […] Samples were processed for serum preparation and frozen at -80° C. until assay. Serum cholesterol levels and alkaline phospatase activity (ALP) were determined using the Boehringer Mannheim Diagnostic Hitachi 911 Analyzer (Boehringer Mannheim Diagnostic Laboratory Systems).

[4] = 5-week treatment of ovariectomized rats with SERMs alone or with DHEA: BMD of lumbar spine, femur, tibia (Example 5); type: in vivo, rat; conditions: OVX rats, 5 weeks
Method: Ten to twelve week-old female Sprague-Dawley rats (Crl:CD(SD)Br) (Charles River Laboratory, St-Constant, Canada) weighing approximately 220-270 g at start of treatment were used. The animals were acclimatized to the environmental conditions (temperature: 22±3° C.; humidity: 50±20%; 12-h light-12-h dark cycles, lights on at 07:15 h) for at least 1 week before starting the experiments. The animals were housed individually and were allowed free access to tap water and a pelleted certified rodent feed (Lab Diet 5002, Ralston Purina, St-Louis, Mo.). Experiments were conducted in an animal facility approved by the Canadian Council on Animal Care (CCAC) and the Association for Assessment and Accreditation of Laboratory Animal Care (AAALAC) in accordance with the CCAC Guide for Care and Use of Experimental Animals.
On day 1 of the study, the animals of the appropriate groups were bilaterally ovariectomized (Ovx) under isoflurane anesthesia. The DHEA was applied topically on the dorsal skin as a solution in 50% ethanol-50% propylene glycol while the tested SERMs were administered as suspension in 0.4% methylcellulose by oral gavage. Treatments were initiated on day 2 of the study and were performed once daily during 5 weeks.
After 5 weeks of treatment, individual rats under Isoflurane anesthesia had their lumbar spine, femur and tibia scanned using dual energy x-ray absorptiometry (DEXA; QDR 4500A, Hologic, Waltham, Mass.) and a Regional High Resolution Scan software. The bone mineral density (BMD) of the lumbar spine (vertebrae L2 to L4), distal femoral metaphysis (DFM) and proximal tibial metaphysis (PTM) were determined.

[5] = OVX mice, absence of estrone, 10 μg daily (no-effect statements: 1 μg and 10 μg)
[6] = Premarin 0.25 mg/kg, SERMs 2.5 mg/kg

- IC50 ([2]; MCF7, MCF-7, Experiment 2): 0.379 nM
- IC50 (human Ishikawa cells; Homo sapiens, Ishikawa, 120 h, read-out: Inhibition of 1 nM E2-induced stimulation of alkaline phosphatase IC50): 4.24 nM
SMILES: Oc1ccc2c(c1)CC[C@H](c1ccccc1)[C@@H]2c1ccc(OCCN2CCCC2)cc1 [Lasofoxifene (free base)]
- inhibition of estrone-stimulated uterine weight ([1]; 1 μg daily): no inhibitory effect
- inhibition of estrone-stimulated uterine weight ([1]; 3 μg daily): 25%
- inhibition of estrone-stimulated uterine weight ([1]; 10 μg daily): 44%
- inhibition of vaginal weight (estrone-stimulated) ([1]; 10 μg daily): 37%
- stimulation of uterine weight (estrogenic effect) [1, 5]: 93%
- stimulation of vaginal weight (estrogenic effect) [1, 5]: 73%
- Stimulation of DNA by tested compounds % of 1 nM E2 stimulation ([2]; MCF-7, Experiment 2): N.S.
- Emax (human Ishikawa cells; Homo sapiens, Ishikawa, 120 h, read-out: Maximal stimulation of alkaline phosphatase % of 1 nM E2 stimulation): 17.9%
- Maximal inhibition of 1 nM E2-induced stimulation of alkaline phosphatase (human Ishikawa cells; Ishikawa cells, 5-day incubation, 1 nM E2): 85.14 (1)

- IC50 ([2]; MCF7, MCF-7, Experiment 1): 3.68 nM
SMILES: Cc1c(-c2ccc(O)cc2)n(Cc2ccc(OCCN3CCCCCC3)cc2)c2ccc(O)cc12 [TSE 424, 1-[[4-[2-(hexahydro-1H-azepin-1-yl)ethoxy]phenyl]methyl]-2-(4-hydroxyphenyl)-3-methyl-1H-indol-5-ol, acetate]
- UTERINE WEIGHT ([1]; OVX + E1, 1 μg): 105.5 ± 6.1 mg
- VAGINAL WEIGHT ([1]; OVX + E1, 1 μg): 54.2 ± 3.0 mg
- UTERINE WEIGHT ([1]; OVX + E1, 3 μg): 69.7 ± 4.4 mg
- VAGINAL WEIGHT ([1]; OVX + E1, 3 μg): 47.2 ± 1.6 mg
- UTERINE WEIGHT ([1]; OVX + E1, 10 μg): 42.1 ± 2.7 mg
- VAGINAL WEIGHT ([1]; OVX + E1, 10 μg): 31.1 ± 2.3 mg
- UTERINE WEIGHT ([1]; OVX + E1, 30 μg): 21.7 ± 1.7 mg
- VAGINAL WEIGHT ([1]; OVX + E1, 30 μg): 16.7 ± 1.8 mg
- inhibition of estrone-stimulated uterine weight ([1]; 1 μg daily): 12%
- inhibition of estrone-stimulated uterine weight ([1]; 3 μg daily): 47%
- inhibition of vaginal weight (estrone-stimulated) ([1]; 3 μg daily): 16%
- inhibition of estrone-stimulated uterine weight ([1]; 10 μg daily): 74%
- inhibition of vaginal weight (estrone-stimulated) ([1]; 10 μg daily): 56%
- inhibition of estrone-stimulated uterine weight ([1]; 30 μg daily): 94%
- inhibition of vaginal weight (estrone-stimulated) ([1]; 30 μg daily): 93%
- UTERINE WEIGHT ([1]; OVX without E1, 3 μg): 18.3 ± 1.2 mg
- VAGINAL WEIGHT ([1]; OVX without E1, 3 μg): 14.1 ± 1.2 mg
- UTERINE WEIGHT ([1]; OVX without E1, 30 μg): 17.7 ± 1.6 mg
- VAGINAL WEIGHT ([1]; OVX without E1, 30 μg): 15.3 ± 2.0 mg
- ALP [3]: 85 ± 6 IU
- CHOLESTEROL (serum) [3]: 1.15 ± 0.05 mmol/L
- TOTAL FAT [3]: 28.0 ± 1.8 %
- reversal of the fat increase induced by estrogen deficiency [3]: 75%
- LUMBAR SPINE BMD [3, 6]: 0.2252 ± 0.0058 g/cm^2
- LUMBAR SPINE Prevention of Bone Loss [3, 6]: 49%
- DISTAL FEMORAL METAPHYSIS (DFM) BMD [4]: 0.2929 ± 0.0042 g/cm^2
- DISTAL FEMORAL METAPHYSIS (DFM) Prevention of Bone Loss [4]: 70%
- PROXIMAL TIBIAL METAPHYSIS (PFM) BMD [4]: 0.2750 ± 0.0039 g/cm^2
- PROXIMAL TIBIAL METAPHYSIS (PFM) Prevention of Bone Loss [4]: 71%
- LUMBAR SPINE (L2-L4) BMD ([4]; SERMs 2.5 mg/kg, DHEA 80 mg/kg): 0.2162 ± 0.0035 g/cm^2
- LUMBAR SPINE (L2-L4) Prevention of Bone Loss ([4]; SERMs 2.5 mg/kg, DHEA 80 mg/kg): 53%

From patent publication US11452731B2, “Method of treating and preventing loss of cognition” (ENDORECHERCHE, INC., priority 2009, dated 2022)
